This note sets out measurements from ChEMBL document CHEMBL3507680, “University of Dundee, Gates Library screen for HepG2 cell viability”.

This series is described as follows: Human HepG2 cell viability assay in 384 well format. Also noted: dose 125 nL, time 70.5 hour; concentration not given beside the values. Type of series: toxicity, cell-based. To be noted: HepG2 cells, read-out: Inhibition.

Each structure is given as a SMILES string.

Turning to `c1ccc(-n2ccc(CN3CCOC(Cn4cncn4)C3)n2)cc1` (configuration not stated), the cytotoxicity at 70.5 h was -8.56%.

Consider `c1ccc(-c2ccc(CN3CCOC(Cn4cncn4)C3)cc2)cc1` (configuration not stated), for which the cytotoxicity at 70.5 h is 22%. With `Cn1cc(C2CCCN2Cc2csc(C3CCCC3)n2)cn1` (configuration not stated) the figure was 0.499%; with `Cc1cnn(CC2CN(Cc3ccc(-n4cccn4)cc3)CCO2)c1` (configuration not stated), -0.9%. The same measure for `Cn1cc(-c2nc(CN3CCCCC3Cn3cncn3)cs2)cn1` (configuration not stated): 19.3%; for `CS(=O)(=O)NCCN1CCCC1c1noc(C2CC2)n1` (configuration not stated): 19.5%; for `Cc1n[nH]c(C2CN(Cc3nnc(C4CCC4)o3)CCO2)n1` (configuration not stated): -1.02%. The same measure for `CCc1nnc(CN2CCOC(Cn3cccn3)C2)o1` (configuration not stated): -8.14%; for `c1ccc(Cc2nc(CN3CCCC3Cn3cncn3)cs2)cc1` (configuration not stated): -7.1%; for `Cc1cnn(CC2CCCCN2Cc2nnsc2Cl)c1` (configuration not stated): -7.35%. Turning to `CS(=O)(=O)c1ccc(CNC(=O)N2CCC(C(N)=O)CC2)cc1`, the cytotoxicity at 70.5 h is -2.35%. With `CCOc1ncccc1NC(=O)NCC(O)c1ccc(OC)cc1` (configuration not stated) the figure was 19.2%; with `CC(NC(=O)NCCCc1n[nH]c(N)c1C#N)c1ccc(Cl)cc1` (configuration not stated), -0.0754%; with `COc1cc(C(=O)Nc2nc(C)no2)ccc1OC(F)F`, 2.82%. As for `CCOCc1ccc(CNC(=O)N2CCC(C(N)=O)C2)cc1` (configuration not stated), the cytotoxicity at 70.5 h is -2.39%. The same measure for `c1ccc(-c2nnc(CN3CCOC(Cn4cccn4)C3)o2)cc1` (configuration not stated): -6.72%; for `Cc1nn(C)c(N2CCOCC2)c1CN[C@@H]1c2ccccc2C[C@@H]1O`: -0.734%; for `CS(=O)(=O)Cc1ccc(CNC(=O)N2CCC(C(N)=O)C2)cc1` (configuration not stated): -1.33%. The same measure for `Cc1ccc(-c2nnc(CN3CCOC(Cn4cncn4)C3)o2)cc1` (configuration not stated): -5.3%; for `COc1ccc(C)cc1C(=O)N1CCCC(n2nc(C)nc2C)C1` (configuration not stated): -8.26%; for `CS(=O)(=O)c1ccc(CNC(=O)N2CCC(CO)CC2)cc1`: -2.86%. With `Clc1ccc(-c2nnc(CNCCn3cccn3)o2)c(Cl)c1` the figure was -6.39%; with `Cc1nc(C)n(CC2CCCN2CCOc2ccccc2F)n1` (configuration not stated), -3.47%. Regarding `CCc1nc(CN(C(C)=O)C2CCN(CCc3ccccc3)C2)no1` (configuration not stated), the cytotoxicity at 70.5 h is -5%. With `Cc1nc(CN2CCCC(NCCCc3ccccc3)C2)no1` (configuration not stated) the figure was -10.6%.

`O=C(CCCN1C(=O)CCC1=O)NCC1(c2ccccc2)CCC1`: the cytotoxicity at 70.5 h was -11.4%. The same measure for `Cc1cccc(-n2c(C)cc(C(=O)NS(C)(=O)=O)c2C)c1`: -14.6%; for `CC(NC(=O)NCCn1ccnc1)c1ccc2c(c1)OCCCO2` (configuration not stated): -13.2%; for `CC(NC(=O)NCCCO)c1ccc2c(c1)NC(=O)CO2` (configuration not stated): -12%. With `CNC(=O)c1cc(C)n(-c2cccc(OC)c2)c1C` the figure was 11%.

`CN(CC(N)=O)CC(=O)N1CC=C(c2ccccc2)CC1`: the cytotoxicity at 70.5 h was -10.6%. The same measure for `c1ccc2nc(N3CCOC(Cn4cccn4)C3)cnc2c1` (configuration not stated): -11.7%; for `CCOc1ccccc1CNC1CCCN(Cc2noc(C)n2)C1` (configuration not stated): -9.86%; for `Cc1cc(C)n(C2CCCN(C(=O)Cc3ccc(C#N)cc3)C2)n1` (configuration not stated): -14.4%. With `CNC(=O)CCNC(=O)c1cc(C)n(-c2cccc(OC)c2)c1C` the figure was -8.45%.

As to `c1ccc2nc(N3CCOC(Cn4cncn4)C3)cnc2c1` (configuration not stated), the cytotoxicity at 70.5 h is -5.96%.

For `Cc1n[nH]c(C2CN(C(=O)c3cc4c(s3)CCC4)CCO2)n1` (configuration not stated), the cytotoxicity at 70.5 h is -14.5%. With `Cc1cccc(C2(CNC(=O)CO)CCCC2)c1` the figure was 17.1%. With `O=C1C(NS(=O)(=O)c2cccc(F)c2)CCN1Cc1ccccc1` (configuration not stated) the figure was -12%; with `O=C1C(NS(=O)(=O)c2ccc(F)c(F)c2)CCN1Cc1ccccc1` (configuration not stated), -7.62%; with `CCc1n[nH]c(C2CN(C(=O)c3cc(C(N)=O)cs3)CCO2)n1` (configuration not stated), -12.1%. The same measure for `Cc1ccc(CC(=O)N2CCCC(n3nc(C)cc3C)C2)cn1` (configuration not stated): -9.71%; for `CCc1nc(CN(C(C)=O)C2CCN(CCc3ccncc3)C2)no1` (configuration not stated): 11.6%. Take `COc1ccc(CC(=O)N2CCCC(n3nc(C)cc3C)C2)cc1` (configuration not stated): the cytotoxicity at 70.5 h was -3.95%.

Regarding `Clc1ccccc1-c1nnc(CNCCn2cccn2)o1`, the cytotoxicity at 70.5 h is -8.51%. The same measure for `Cc1n[nH]c(C2CN(C(=O)c3cc4c(s3)CCCC4)CCO2)n1` (configuration not stated): -4.81%; for `CCCc1n[nH]c(C2CN(C(=O)c3cc4c(s3)CCC4)CCO2)n1` (configuration not stated): -7.08%; for `COc1ccc(CC(=O)N2CCCC(n3nc(C)cc3C)C2)cc1F` (configuration not stated): -9.02%. As to `CN1CCOC(CNCc2coc(-c3ccc(Cl)cc3)n2)C1` (configuration not stated), the cytotoxicity at 70.5 h is -2.49%. The same measure for `CN1CCOC(CNCc2coc(-c3cccc(F)c3)n2)C1` (configuration not stated): 36.2%.

As for `Cc1nc(CSCCC(=O)NCc2ccncc2)cs1`, the cytotoxicity at 70.5 h is -6.44%. With `CCN(CC1CCCO1)C(=O)Nc1cccc(Cl)c1OC` (configuration not stated) the figure was 24.1%; with `Cc1cccc(NC2CCN(C(=O)Nc3cc(F)ccc3F)CC2)n1`, 0.351%. The same measure for `Cc1cccc(NC2CCN(C(=O)Nc3ccc(F)cc3C)CC2)n1`: -5.61%; for `COc1cccc(CNCC2CN(C)CCO2)c1` (configuration not stated): -7.17%. On to `COc1ccc(CNC(=O)CCSCc2csc(C)n2)cn1`, for which the cytotoxicity at 70.5 h is -4.07%. With `COCCOc1ccc(NC(=O)C2CC(=O)N(C(C)C)C2)cn1` (configuration not stated) the figure was -4.64%; with `COCCOc1ccc(NC(=O)C2CC(=O)N(CC3CC3)C2)cn1` (configuration not stated), 19.3%; with `CCN(CC)C(CNC(=O)c1c(C)noc1C(C)C)c1ccsc1` (configuration not stated), 0.627%. With `COCCOc1ccc(NC(=O)C2CC(=O)N(C3CC3)C2)cn1` (configuration not stated) the figure was -4.78%; with `Cc1cc(NC(=O)NCC(C)N2CCOCC2)n(C)n1` (configuration not stated), -6.14%; with `CCOc1ccc(C#N)cc1NCC(=O)OC`, -2.6%. The same measure for `CCOc1ccc(C#N)cc1NCC(=O)NC(=O)Nc1ccccc1`: -8.89%; for `OC(CN1CCC(c2ccn[nH]2)CC1)c1ccc(F)cc1` (configuration not stated): 26.4%. Turning to `c1ccc(-c2noc(CNC3CCc4ncnn4C3)n2)nc1` (configuration not stated), the cytotoxicity at 70.5 h was -4.56%. The same measure for `CCOC(=O)c1sc2ccsc2c1CNC(=O)C(C)(C)C#N`: -2.32%; for `Cc1nc(C)n(C2CCCN(C(=O)c3ccc(NC4CC4)nc3)C2)n1` (configuration not stated): -6.49%. The same measure for `Nc1nc(CN2CCCC(Cn3cncn3)C2)nc2ccccc12` (configuration not stated): 1.03%; for `Cc1nnc(NCc2cccnc2N(C)C)c(C#N)c1C`: 2.49%. With `Cc1cnc(CN(C)C2CCN(CCc3ccccn3)CC2)cn1` the figure was 14.7%; with `CN(Cc1ncc[nH]1)CC(c1cccs1)N1CCOCC1` (configuration not stated), 17.4%. For `Cc1nc(C)c(C(=O)NCCNC(=O)Cc2ccccc2)s1`, the cytotoxicity at 70.5 h is -1.65%. The same measure for `Cc1nc(C)c(C(=O)NCCNC(=O)Cc2cccc(F)c2)s1`: -9.52%. With `CC(NC(=O)NCCCOC1CCCCC1)c1nncn1C` (configuration not stated) the figure was -6.4%; with `Cc1csc(N2CCCN(C(=O)C(C(C)C)n3cncn3)CC2)n1` (configuration not stated), 2.24%. On to `COCCN1CCN(CCCS(C)(=O)=O)CC1C` (configuration not stated), for which the cytotoxicity at 70.5 h came to 42.9%. With `NC(=O)c1csc(C(=O)N2CCCCC2Cn2cccn2)c1` (configuration not stated) the figure was -10.3%; with `CC(C)n1ncc2cc(NC(=O)N3CCC(N4CCCC4)C3)cnc21` (configuration not stated), 1.93%.

Turning to `Cc1ccc(C(=O)NS(=O)(=O)c2cccc3cnccc23)c(=O)[nH]1`, the cytotoxicity at 70.5 h is -6.04%. The same measure for `CC(C)(C#N)C(=O)N1CCCC(c2cc(C(F)(F)F)[nH]n2)C1` (configuration not stated): -0.389%; for `CCc1ccccc1-n1cc(O)c(C(=O)N2CCCCC2)n1`: -4.48%; for `O=C(c1nn(-c2ccccc2F)cc1O)N1CCCC1`: -2.52%. As for `CCOCCN1CCN(Cc2cccc(C(=O)N(C)C)c2)CC1`, the cytotoxicity at 70.5 h came to 40.4%.

Turning to `COCCN1CCN(CCS(=O)(=O)C(F)(F)F)CC1C` (configuration not stated), the cytotoxicity at 70.5 h is -6.2%. With `CC(O)CN1CCN(Cc2cccc(C(=O)N(C)C)c2)CC1` (configuration not stated) the figure was -2.45%.

As for `COc1c(C2CCCN2CC(=O)Nc2nc(C)cs2)c(C)nn1C` (configuration not stated), the cytotoxicity at 70.5 h is 3.79%.

For the compound `CCc1nc(C2CCCN(C(=O)c3cn(C)nc3C)C2)no1` (configuration not stated), the cytotoxicity at 70.5 h came out at 36.3%. The same measure for `CCc1ccc(CCC(=O)N2CCOCC2c2ncon2)cc1` (configuration not stated): -9.85%; for `Cc1nc(CN(C)C2CCN(CC(=O)NC3CCOCC3)C2)no1` (configuration not stated): 4.94%. The same measure for `CC(=O)N(Cc1noc(C2CC2)n1)C1CCN(Cc2cccnc2)C1` (configuration not stated): -9.51%. With `Cc1cnn(CC2CN(Cc3nnc(-c4occc4C)o3)CCO2)c1` (configuration not stated), the cytotoxicity at 70.5 h was -18.4%. `Cc1ccccc1-n1ncc(C(=O)N2CCCC2c2cnn(C)c2)c1C` (configuration not stated): the cytotoxicity at 70.5 h is -13.6%. The same measure for `Cc1nc(CN(C)C2CCN(CC3CCCCC3)C2)no1` (configuration not stated): -11.6%; for `N#Cc1ccc(CN2CCN(C(=O)c3cc(C4CC4)[nH]n3)CC2)cc1`: 0.0729%. The same measure for `O=C(C1CCCCN1Cc1nc(-c2ccco2)no1)N1CCCC1` (configuration not stated): 4.12%. With `O=C(NCCNc1ncccn1)C1CCN(C(=O)C2CC2)CC1` the figure was -13%; with `COC(=O)c1cccc(OCCn2nc(-c3cccs3)oc2=O)c1`, -21.5%. Turning to `O=C(C1CCCC1)N1CCN(Cc2nc(-c3ccco3)no2)CC1`, the cytotoxicity at 70.5 h was -9.97%. Regarding `CC(C)c1ncncc1C(=O)N1CCN(Cc2cscn2)CC1`, the cytotoxicity at 70.5 h amounted to 22.6%. With `CCN(CC)C(=O)c1nnn(-c2ccc(C)cc2)c1C1CC1` the figure was -7.41%. The same measure for `NC(=O)C1CN(C(=O)Nc2ccccc2-c2cccs2)CCO1` (configuration not stated): -1.53%; for `CCOC(=O)c1sc2ccsc2c1CN`: -3.38%.
